From PubChem BioAssay AID602483 (Southern Research Specialized Biocontainment Screening …, 2012)
The source made the active and inactive calls. No rule for the calls is given here.

Experiments:
[1] = viability of HEp-2 cells – cell-based, set 1, cytotoxicity control, dose response (AID 602483); conditions: HEp-2 cell viability, cytotoxicity; at 50 µM (top of the series)
[2] = system: HEp-2 cell viability, cytotoxicity; assay: as above

Compound | viability [1] | CC50 [2]
CN1CCN(Cc2nc3ccc([N+](=O)[O-])cc3c(=O)n2-c2ccccc2F)CC1 | 70.1% (inactive) | –
CCN1CCN(Cc2nc3ccc([N+](=O)[O-])cc3c(=O)n2-c2ccccc2F)CC1 | 72.6% (inactive) | –
CN(C(=O)Cc1cccs1)c1nc2c(s1)CCCC2 | – | 5.67 µM
